In US9714249B2 (Novartis AG, priority 2013, dated 2017):

What was measured:
[1] = target: CREBBP bromodomain (His-CREBBP (1081-1197)) (Homo sapiens (Human), UniProt Q92793); assay: AlphaScreen in-vitro binding assay for CREBBP; conditions: acetyl-histone H4 peptide
Experimental: In order to assess bromodomain selectivity, we set up a binding assay using the bromodomain encoded by the CREBBP gene. […] Reactions were incubated at 30° C. for 35 minutes. Subsequently 4.5 μl per well detection mix (50 mM HEPES, pH 7.5, 0.005% Tween20, 0.02% BSA, 150 mM NaCl, 45 μg/ml Ni-chelate acceptor beads, 45 μg/ml streptavidin-donor beads) (Perkin Elmer)) were added. After 60 minutes incubation at room temperature, plates were measured in a Perkin Elmer EnVision multilabel reader. IC50 values were determined from percent inhibition values at different compound concentrations by non-linear regression analysis.
(§1) Test compounds were dissolved in DMSO (10 mM) and transferred into 1.4 mL flat bottom or V-shaped Matrix tubes carrying a unique 2D matrix. The stock solutions were stored at […] if not used immediately. For the test procedure the vials were defrosted and identified by a scanner whereby a working sheet was generated that guided the subsequent working steps. Compound dilutions were made in 96 well plates. This format enabled the assay of maximally 40 individual test compounds at 8 concentrations (single points) including 4 reference compounds, if desired (known BET inhibitors from the prior art, for this and other assays of the type disclosed herein). The dilution protocol included the production of “pre-dilution plates”, “master plates” and “assay plates”.
Pre-dilution plates: 96 polypropylene well plates were used as pre-dilution plates. A total of 4 pre-dilution plates were prepared including 10 test compounds each on the plate positions A1-A10, one standard compound at A11 and one DMSO control at A12. All dilution steps were done on a HamiltonSTAR robot. […] These plates were used directly for the assay which was performed in a total volume of 13.55 μL. […] Cell Growth Inhibition Assay

THP-1 cells = assay: Cell growth inhibition assay (CellTiter-Glo), THP-1; assay type: cell-based, human; conditions: THP-1, 4 days; for GI50: Homo sapiens, 96 h, half-maximal growth inhibition; for THP-1 TGI: total growth inhibition
Experimental: (§2) The human leukemia cell lines MV-4-11, THP-1 and K-562 were employed to characterize the effect of BET inhibitors on cellular proliferation and viability. Cells were obtained from the American Type Culture Collection (ATCC) and cultured at 37° C. in a humidified 5% CO2 incubator in the following media: MV-4-11: DMEM high glucose (Animed #1-26F01-I), 10% FCS (Animed #2-01F26-I), 4 mM L-Glutamine (Animed #5-10K50), 1 mM Sodium Pyruvate (Animed # G03625P), 1× Penicillin-Streptomycin (Animed # F12478P); K-562: Iscove's MEM (Animed #1-28F16-I), 10% FCS (Animed #2-01F26-I), 4 mM L-Glutamine (Animed #5-10K50), 1× Penicillin-Streptomycin (Animed # F12478P); THP-1: RPMI-1640 (Animed #1-41F01-I), 10% FCS (Animed #2-01F26-I), 2 mM L-Glutamine (Animed #5-10K50), 10 mM HEPES (Animed #5-31F100), 1 mM Sodium Pyruvate (Animed # G03625P), 1× Penicillin-Streptomycin (Animed # F12478P). The AML lines MV-4-11 and THP-1 are very sensitive to BET inhibitors and show massive cell death upon BET inhibition (Zuber et al., Nature, 478 (2011), 524-8). Compound-mediated suppression of cell proliferation/viability was assessed by quantification of cellular ATP levels using the CellTiter-Glo (CTG) reagent (Promega). Briefly, cells were seeded in 20 μl fresh medium into 384-well plates, followed by addition of 5 μl medium containing compound dilutions at 5-fold their final intended concentration. Dose-response effects were assessed by 3-fold serial dilutions of the test compound, starting at 10 μM. Following incubation of the cells for 4 days at 37° C. and 5% CO2, the effect of inhibitors on cell viability was quantified following addition of 20 μl CTG and luminescence quantification (integration time: 100 ms) as per vendor manual, using a correspondingly equipped Tecan M200 multi-mode platereader (TECAN, Switzerland). For data analysis, the assay background value determined in wells containing medium, but no cells, was subtracted from all data points. To enable differentiation of cytotoxic from cytostatic compounds, the number of viable cells is assessed relative to that observed at the time of compound addition using a separate cell plate (day 0). The effect of a particular test compound concentration on cell proliferation/viability is expressed as percentage of the background- and day 0-corrected luminescence reading obtained for cells treated with vehicle only (DMSO, 0.1% final concentration), which is set as 100%, whereas that luminescence reading for wells containing medium is set as −100%. Compound concentrations leading to half-maximal (1050) and total growth inhibition (TGI) were determined using standard four parameter curve fitting.

BRD3 (His-Brd3(20-477)) = BRD3 (His-Brd3(20-477)) (Homo sapiens (Human), UniProt Q15059); assay: TR-FRET in-vitro binding assay for BRD3; conditions: acetyl-histone H4 peptide
Experimental: (§3) All assays were performed in 384 well microtiter plates. Each assay plate contained 8-point serial dilutions for 40 test compounds, plus 16 high- and 16 low controls. Liquid handling and incubation steps were done on an Innovadyne Nanodrop Express equipped with a robotic arm (Thermo CatX, Perkin Elmer/Caliper Twister II) and an incubator (Liconic STX40, Thermo Cytomat 2C450). The assay plates were prepared by addition of 50 nl per well of compound solution in 90% DMSO HummingBird nanodispenser (Zinsser Analytic). The assay was started by stepwise addition of 4.5 μl per well of bromo domain protein (50 mM HEPES, pH 7.5, 0.005% Tween20, 0.1% BSA, 50 mM NaCl, 45 nM His-Brd2(60-472) or 45 nM His-Brd3(20-477) or 45 nM His-Brd4(44-477) all proteins produced in-house) and 4.5 μl per well of peptide solution (50 mM HEPES, pH 7.5, 0.005% Tween20, 0.1% BSA, 50 mM NaCl, 60 nM acetyl-histone H4 (AcK 5, 8, 12, 16) (Biosyntan GmbH)). Reactions were incubated at 30° C. for 35 minutes. Subsequently 4.5 μl per well detection mix (50 mM HEPES, pH 7.5, 0.005% Tween20, 0.1% BSA, 50 mM NaCl, 3 nM Eu-labeled anti-His6 antibody, 21 nM streptavidin-allophycocyanin) were added. After 35 minutes incubation at 30° C., plates were measured in a Perkin Elmer EnVision multilabel reader. Concentrations causing 50% inhibition (1050) values were determined from percent inhibition values at different compound concentrations by non-linear regression analysis.
as §1
(§4) Pre-dilution plates: 96 polypropylene well plates were used as pre-dilution plates. A total of 4 pre-dilution plates were prepared including 10 test compounds each on the plate positions A1-A10, one standard compound at A11 and one DMSO control at A12. All dilution steps were done on a HamiltonSTAR robot. Master plates: 30 μL of individual compound dilutions including standard compound and controls of the 4 “pre-dilution plates” were transferred into a 384 “master plate” including the following concentrations 10000, 3003, 1000, 300, 100, 30, 10 and 3 μM, respectively in 90% of DMSO. Assay plates: Identical “assay plates” were then prepared by pipetting 50 nL each of compound dilutions of the “master plates” into 384-well “assay plates” by means of a HummingBird 384-channel dispenser. These plates were used directly for the assay which was performed in a total volume of 13.55 μL. This led to a final compound concentration of 37, 11, 3.7, 1.1, 0.37, 0.11, 0.037 and 0.011 μM and a final DMSO concentration of 0.37% in the assay. Cell Growth Inhibition Assay

K-562 cells = assay: Cell growth inhibition assay (CellTiter-Glo), K-562; assay type: cell-based, human; conditions: K-562, 4 days; for GI50: Homo sapiens, K562, 96 h, half-maximal growth inhibition; for K-562 TGI: total growth inhibition
Experimental: as §2

MV-4-11 cells = assay: Cell growth inhibition assay (CellTiter-Glo), MV-4-11; assay type: cell-based, human; conditions: MV-4-11, 4 days; for GI50: Homo sapiens, MV4-11, 96 h, half-maximal growth inhibition; for MV-4-11 TGI: total growth inhibition
Experimental: as §2

BRD2 (His-Brd2(60-472)) = BRD2 (His-Brd2(60-472)) (Homo sapiens (Human), UniProt P25440); assay: TR-FRET in-vitro binding assay for BRD2; conditions: acetyl-histone H4 peptide
Experimental: as §3, §1, §4

BRD4-NUT-fusion = BRD4-NUT-fusion (Homo sapiens (Human), UniProt O60885+Q86Y26); assay: Nut-foci formation assay (HCS) in HCC2494 NUT midline carcinoma cells; assay type: cell-based; conditions: 24 hours, nuclear BRD4-NUT foci, immunofluorescence
Experimental: Compound-mediated inhibition of BRD4 activity was monitored by quantification of the number and intensity of nuclear BRD4-NUT foci using automated immunofluorescence microscopy. Briefly, 5000 cells in 20 μl fresh medium were seeded into Poly-D-Lysine-precoated 384-well plates and incubated overnight at 37° C. and 5% CO2, followed by addition of 5 μl medium containing compound dilutions at 5-fold their final intended concentration. Dose-response effects were assessed by 3-fold serial dilutions of the test compound, starting at 10 μM. […] Assay plates were imaged using the appropriate filter sets on the Cellomics VTi automated fluorescence microscopy platform (ThermoFisher Scientific) and the population average of the number of NUT-foci per nucleus is quantified using the Cellomics Spot Detection BioApplication image analysis algorithm (ThermoFisher Scientific). The effect of a particular test compound concentration on NUT-foci number and intensity is expressed as percentage of the value obtained for cells treated with vehicle only (DMSO, 0.1% final concentration), which was set as 100.

CREBBP bromodomain (His-CREBBP (1081-1197)), sequence (Q92793 1081-1197): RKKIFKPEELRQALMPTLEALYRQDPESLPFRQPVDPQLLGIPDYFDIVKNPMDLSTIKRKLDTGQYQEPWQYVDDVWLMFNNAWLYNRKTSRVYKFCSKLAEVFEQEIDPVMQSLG
BRD3 (His-Brd3(20-477)), sequence (Q15059 20-477, species assumed): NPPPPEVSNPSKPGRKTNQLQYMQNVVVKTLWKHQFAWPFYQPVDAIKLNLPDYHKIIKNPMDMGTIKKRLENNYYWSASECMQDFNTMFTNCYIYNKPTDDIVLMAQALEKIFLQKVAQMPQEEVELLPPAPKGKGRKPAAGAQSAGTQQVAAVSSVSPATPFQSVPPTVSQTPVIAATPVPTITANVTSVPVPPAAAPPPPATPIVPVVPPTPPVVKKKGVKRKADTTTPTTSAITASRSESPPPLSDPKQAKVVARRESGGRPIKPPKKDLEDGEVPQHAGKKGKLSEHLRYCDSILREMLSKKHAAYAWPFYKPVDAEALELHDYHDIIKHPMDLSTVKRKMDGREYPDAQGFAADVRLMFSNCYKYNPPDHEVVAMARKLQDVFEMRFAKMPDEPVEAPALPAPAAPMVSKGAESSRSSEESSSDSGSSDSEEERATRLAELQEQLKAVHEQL
BRD2 (His-Brd2(60-472)), sequence (P25440 60-472, species assumed): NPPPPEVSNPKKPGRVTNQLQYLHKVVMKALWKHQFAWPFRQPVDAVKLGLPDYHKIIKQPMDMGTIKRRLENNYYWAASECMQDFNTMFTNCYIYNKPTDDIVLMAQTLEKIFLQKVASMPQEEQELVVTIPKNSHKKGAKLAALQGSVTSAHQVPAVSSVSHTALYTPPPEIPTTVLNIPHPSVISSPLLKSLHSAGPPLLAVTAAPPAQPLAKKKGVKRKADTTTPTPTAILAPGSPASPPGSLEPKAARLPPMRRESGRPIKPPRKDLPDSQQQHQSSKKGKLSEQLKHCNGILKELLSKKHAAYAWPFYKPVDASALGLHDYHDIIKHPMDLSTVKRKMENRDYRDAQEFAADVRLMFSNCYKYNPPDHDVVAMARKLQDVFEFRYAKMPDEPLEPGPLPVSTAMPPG

IC50 [1]	GI50 (THP-1 cells)	IC50 (BRD3 (His-Brd3(20-477)))	GI50 (K-562 cells)	GI50 (MV-4-11 cells)	IC50 (BRD2 (His-Brd2(60-472)))	SMILES	THP-1 TGI (THP-1 cells)	K-562 TGI (K-562 cells)	MV-4-11 TGI (MV-4-11 cells)	IC50 (BRD4-NUT-fusion)
3300 nM	59.4 nM	49 nM	170 nM	25.6 nM	52 nM	Cc1cc(N2C(=O)c3c(C4CC4)n[nH]c3C2c2ccc(Cl)cc2)cn(C)c1=O (stereo not drawn) [Example 23, 6-(4-chlorophenyl)-3-cyclopropyl-5-(1,5-dimethyl-6-oxo-1,6-dihydropyridin-3-yl)-5,6-dihydropyrrolo[3,4-c]pyrazol-4(1H)-one]	0.1285 µM	>10 µM	0.048 µM	
1200 nM	56.2 nM	27 nM	112 nM	27.1 nM		Cc1[nH]nc2c1C(=O)N(c1cc(C)c(=O)n(C)c1)[C@@H]2c1ccc(Cl)cc1 [Example 27, (R)-6-(4-chlorophenyl)-5-(1,5-dimethyl-6-oxo-1,6-dihydropyridin-3-yl)-3-methyl-5,6-dihydropyrrolo[3,4-c]pyrazol-4(2H)-one]	0.115 µM	>10 µM	0.0496 µM	
3000 nM	88.5 nM	67 nM	322 nM	51 nM		Cc1[nH]nc2c1C(=O)N(c1cc(C)c(=O)n(C)c1)C2c1ccc(Cl)cc1 (stereo not drawn) [Example 9, 6-(4-chlorophenyl)-5-(1,5-dimethyl-6-oxo-1,6-dihydropyridin-3-yl)-3-methyl-5,6-dihydropyrrolo[3,4-c]pyrazol-4(2H)-one]	0.206 µM	>10 µM	0.0721 µM	

SMILES	IC50 [1]	GI50 (THP-1 cells)	IC50 (BRD3 (His-Brd3(20-477)))	GI50 (K-562 cells)	GI50 (MV-4-11 cells)	IC50 (BRD2 (His-Brd2(60-472)))	THP-1 TGI (THP-1 cells)	K-562 TGI (K-562 cells)	MV-4-11 TGI (MV-4-11 cells)	IC50 (BRD4-NUT-fusion)
COc1ncccc1-n1nc(C)c2c1C(c1ccc(Cl)cc1)N(c1cc(C)c(=O)n(C)c1)C2=O (stereo not drawn) [Example 17a, 6-(4-chlorophenyl)-5-(1,5-dimethyl-6-oxo-1,6-dihydropyridin-3-yl)-1-(2-methoxypyridin-3-yl)-3-methyl-5,6-dihydropyrrolo[3,4-c]pyrazol-4(1H)-one]		102 nM		293 nM	58.1 nM		0.175 µM	>10 µM	0.0879 µM	56.1 nM
CCOc1ncccc1-n1nc(C)c2c1C(c1ccc(Cl)cc1)N(c1cc(C)c(=O)n(C)c1)C2=O (stereo not drawn) [Example 18a, 6-(4-chlorophenyl)-5-(1,5-dimethyl-6-oxo-1,6-dihydropyridin-3-yl)-1-(2-ethoxypyridin-3-yl)-3-methyl-5,6-dihydropyrrolo[3,4-c]pyrazol-4(1H)-one]		89.6 nM		574 nM	89.3 nM		0.175 µM	>10 µM	0.101 µM	66.6 nM
